# Residue numbers refer to the chain shown, from its start. Where “and” joins values, the source holds several entries; their conditions need not be identical. Equal values may be shown once.
# What was measured:
# [1] = biological target: T1, β2AR-Nterm-hTA1-F112^3.41W (CryoEM Construct) (Homo sapiens, UniProt Q96RJ0, F112W); assay: GloSensor cAMP accumulation assay, cryoEM construct; type: cell-based;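 also: cells transiently co-transfected with the receptor construct and GloSensor cAMP biosensor, luminescence read after 30 min compound exposure at room temperature in the dark as cAMP accumulation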;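 as to Normalized Luminescence Counts (N=2): normalized to the maximum response of β-PEA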
# T1 construct: FLAG (N); 10xHis (N); TEV protease site (N); expressed in transfected cells; host or cells: HEK293T
# T1 sequence (Q96RJ0 with tags, fused parts or gaps F112W): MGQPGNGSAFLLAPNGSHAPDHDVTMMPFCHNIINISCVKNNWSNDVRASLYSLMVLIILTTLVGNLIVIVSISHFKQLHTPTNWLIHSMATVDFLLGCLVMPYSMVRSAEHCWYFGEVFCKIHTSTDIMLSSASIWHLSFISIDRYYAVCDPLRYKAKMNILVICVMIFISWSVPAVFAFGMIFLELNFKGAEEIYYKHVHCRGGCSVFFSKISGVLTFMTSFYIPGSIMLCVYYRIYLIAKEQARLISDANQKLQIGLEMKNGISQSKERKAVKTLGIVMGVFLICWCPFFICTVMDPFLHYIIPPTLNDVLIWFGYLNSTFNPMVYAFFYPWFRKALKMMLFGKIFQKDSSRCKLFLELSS
# hTA1 I290Y = biological target: T2, hTA1 I290Y (Homo sapiens, UniProt Q96RJ0, I290Y); assay: GloSensor cAMP accumulation assay, I290Y mutant; type: cell-based; conditions: for cAMP accumulation response, normalized (concentration-response source data, single replicate values): hTA1 I290Y (N=3), log[Compound];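 as to cAMP accumulation response, normalized (concentration-response source data, single replicate values): normalized to the maximum response of β-PEA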
# T2 construct: expressed in transfected cells; host or cells: HEK293T
# T2 sequence (Q96RJ0 1-339 I290Y): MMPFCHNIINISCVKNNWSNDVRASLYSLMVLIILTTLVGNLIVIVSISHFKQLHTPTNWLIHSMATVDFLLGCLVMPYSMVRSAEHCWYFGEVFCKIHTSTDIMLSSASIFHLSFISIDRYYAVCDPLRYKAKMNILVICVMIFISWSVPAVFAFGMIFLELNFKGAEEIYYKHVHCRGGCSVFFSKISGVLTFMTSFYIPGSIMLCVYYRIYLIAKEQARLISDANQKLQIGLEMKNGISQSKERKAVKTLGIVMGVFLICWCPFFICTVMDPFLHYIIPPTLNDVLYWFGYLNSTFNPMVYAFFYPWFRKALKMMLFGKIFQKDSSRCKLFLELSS
# hTA1 T194A = biological target: T3, hTA1 T194A (Homo sapiens, UniProt Q96RJ0, T194A); assay: GloSensor cAMP accumulation assay, T194A mutant; conditions: for cAMP accumulation response, individual replicate values of the concentration-response curve: hTA1 T194A, log[Agonist], Supplementary Figure 5 source data
# T3 sequence (Q96RJ0 1-339 T194A): T2 sequence (Q96RJ0 1-339 I290Y) with T194A, Y290I
# hTA1 C5S = biological target: T4, hTA1 C5S (Homo sapiens, UniProt Q96RJ0, C5S); assay: GloSensor cAMP accumulation assay, C5S mutant; type: cell-based; conditions: for C5S - Normalized Luminescence Counts (N=2): log[Compound], single wells
# T4 construct: expressed in transfected cells; host or cells: HEK293T
# T4 sequence (Q96RJ0 1-339 C5S): T2 sequence (Q96RJ0 1-339 I290Y) with C5S, Y290I
# hTA1 C13S = biological target: T5, hTA1 C13S (Homo sapiens, UniProt Q96RJ0, C13S); assay: GloSensor cAMP accumulation assay, C13S mutant; type: cell-based; conditions: for C13S - Normalized Luminescence Counts (N=2): log[Compound], single wells
# T5 construct: expressed in transfected cells; host or cells: HEK293T
# T5 sequence (Q96RJ0 1-339 C13S): T2 sequence (Q96RJ0 1-339 I290Y) with C13S, Y290I
# [2] = Cryo EM Construct, mean of each independent experiment (3 replicates)
smiles,measurement,setting,value
"NCCc1ccc(Oc2ccc(O)cc2)c(I)c1 [T1AM, 3-iodothyronamine]","ΔEmax values (each mutant value - WT average), Mean",[1]; Cryo EM Construct minus WT average,57.4068 and 36.3707
same,"Emax values, Mean",[1]; [2],-0.05087 and 0.4178
same,"pEC50 values, Mean",[1]; [2],6.078 and 6.547
same,Normalized Luminescence Counts (N=2),"[1]; CryoEM Construct, log[Compound], M = -5, single replicates",123.162 and 140.16 and 121.528 and 161.688
same,Span ± SEM (Emax normalized to β-PEA),"[1]; CryoEM Construct, n=2",115.44
same,pEC50 ± SEM,"[1]; CryoEM Construct, n=2",6.3 ± 0.04
same,EC50,"[1]; CryoEM Construct, n=2, read-out: EC50",491 nM
same,Span ± SEM (Emax normalized to β-PEA),hTA1 I290Y; I290Y,68.94 ± 4.39
same,pEC50 ± SEM,hTA1 I290Y; I290Y,6.05 ± 0.08
same,EC50,"hTA1 I290Y; I290Y, read-out: EC50",889 nM
same,"pEC50 values, Mean","hTA1 I290Y; I290Y, single experiments (3 replicates each)",6.088 and 6.268 and 5.798
same,"Emax values, Mean","hTA1 I290Y; I290Y, single experiments (3 replicates each), β-PEA = 100",77.2061 and 62.2509 and 67.3555
same,"cAMP accumulation response, normalized (concentration-response source data, single replicate values)",hTA1 I290Y; M = -5,82.7627 and 66.4498 and 84.9173 and 54.2232 and 60.0862 and 58.254 and 61.3384 and 53.4426 and 63.5944
same,"cAMP accumulation response, normalized (concentration-response source data, single replicate values)",hTA1 I290Y; M = -5.522,50.7524 and 44.2888 and 57.216 and 57.1547 and 52.391 and 42.1307 and 35.395 and 42.1629 and 29.7552
same,"cAMP accumulation response, normalized (concentration-response source data, single replicate values)",hTA1 I290Y; M = -6,45.5199 and 34.7472 and 39.6719 and 40.665 and 36.2677 and 35.5349 and 24.1153 and 32.0111 and 19.6034
same,"cAMP accumulation response, normalized (concentration-response source data, single replicate values)",hTA1 I290Y; M = -6.522,32.5927 and 17.8187 and 23.9745 and 21.6102 and 23.076 and 24.1753 and 17.3474 and 11.7076 (2×)
same,"cAMP accumulation response, normalized (concentration-response source data, single replicate values)",hTA1 I290Y; M = -7,19.6655 and 9.201 and 18.4343 and 8.4185 and 1.456 and 10.9836 and 6.068 and 3.812 and 4.9397
same,"cAMP accumulation response, normalized (concentration-response source data, single replicate values)",hTA1 I290Y; M = -7.522,3.968 and -2.188 and 2.737 and 2.189 and -3.307 and -4.04 and -0.7002 and 0.4278 and -1.828
same,"cAMP accumulation response, normalized (concentration-response source data, single replicate values)",hTA1 I290Y; M = -8,2.429 and 0.2746 and -0.0332 and -1.842 and -5.873 and -3.674 and -2.956 and -4.0841 and -0.7002
same,"cAMP accumulation response, normalized (concentration-response source data, single replicate values)",hTA1 I290Y; M = -8.522,0.2746 and -3.111 and -0.341 and -6.605 (2×) and -5.873 and -4.0841 (2×) and -5.212
same,"cAMP accumulation response, normalized (concentration-response source data, single replicate values)",hTA1 I290Y; M = -9,-1.88 and -2.803 and -1.572 and 0.7233 and -0.376 and -4.773 and -6.34 and -4.0841 (2×)
same,"cAMP accumulation response, normalized (concentration-response source data, single replicate values)",hTA1 I290Y; M = -9.522,-1.88 and -3.7267 and -2.188 and -6.605 and -1.109 and -4.407 and -4.0841 (2×) and -6.34
same,"cAMP accumulation response, normalized (concentration-response source data, single replicate values)",hTA1 I290Y; M = -10,-0.0332 and -2.496 and -1.572 and -6.605 and -6.972 and 4.021 and -2.956 (2×) and -6.34
same,"cAMP accumulation response, normalized (concentration-response source data, single replicate values)",hTA1 I290Y; M = -10.522,-1.572
same,"pEC50 values, Mean","hTA1 T194A; T149A (so in the source), single experiments (3 replicates each)",6.398 and 6.629 and 6.1942
same,"Emax values, Mean","hTA1 T194A; T149A (so in the source), single experiments (3 replicates each), β-PEA = 100",79.7491 and 146.858 and 73.3036
same,EC50,hTA1 T194A; T194A,235 nM
same,Span ± SEM (Emax normalized to β-PEA),hTA1 T194A; T194A,99.97
same,pEC50 ± SEM,hTA1 T194A; T194A,6.41 ± 0.14
same,"cAMP accumulation response, individual replicate values of the concentration-response curve",hTA1 T194A; M = -7.522,6.402 and 2.253 and 5.81 and 6.799 and 11.9487 and 8.441
same,"cAMP accumulation response, individual replicate values of the concentration-response curve",hTA1 T194A; M = -8,0.08035 and -1.303 and -0.1172 and 2.714 and 2.536 and 3.069
same,"cAMP accumulation response, individual replicate values of the concentration-response curve",hTA1 T194A; M = -8.522,-1.5 and -0.9074 and -0.5123 and 0.09457 and 0.1834 and 0.5385
same,"cAMP accumulation response, individual replicate values of the concentration-response curve",hTA1 T194A; M = -9,-0.9074 and -1.303 (2×) and -1.015 and -1.326 and -0.3494
same,"cAMP accumulation response, individual replicate values of the concentration-response curve",hTA1 T194A; M = -9.522,-2.093 (3×) and -0.6158 and -1.149 and -0.527
same,"cAMP accumulation response, individual replicate values of the concentration-response curve",hTA1 T194A; M = -10,-1.698 and -1.303 and -1.105 and -0.749 (2×) and -0.4382
same,"cAMP accumulation response, individual replicate values of the concentration-response curve",hTA1 T194A; M = -10.522,-1.5 and -1.303 and -1.698 and -0.8822 and -1.326 and -0.971
same,"cAMP accumulation response, individual replicate values of the concentration-response curve",hTA1 T194A; M = -11,-1.303 and -0.9074 and -0.3148 and -0.4826 and -0.9266 and 0.5385
same,"cAMP accumulation response, individual replicate values of the concentration-response curve",hTA1 T194A; M = -11.522,-1.303 (2×) and -0.9074 and -0.4382 and -0.7046 and -0.3938
same,"cAMP accumulation response, individual replicate values of the concentration-response curve",hTA1 T194A; M = -12,-0.5123 and -1.105 and -1.5 and -0.4826 and -0.5714 and -0.6158
same,"cAMP accumulation response, individual replicate values of the concentration-response curve",hTA1 T194A; M = -12.522,-0.3148 (2×) and -0.5123 and -0.5714 (2×) and -0.305
same,Span ± SEM (Emax normalized to β-PEA),"hTA1 C5S; C5S, n=2",81.19 ± 8.03
same,pEC50 ± SEM,"hTA1 C5S; C5S, n=2",5.95 ± 0.04
same,EC50,"hTA1 C5S; C5S, n=2, read-out: EC50",1110 nM
same,"pEC50 values, Mean","hTA1 C5S; hTA1 C5S, mean of 3 replicates, one line per independent experiment",6.184 and 5.721
same,"Emax values, Mean","hTA1 C5S; hTA1 C5S, β-PEA = 100, mean of 3 replicates, one line per independent experiment",73.1551 and 89.2227
same,C5S - Normalized Luminescence Counts (N=2),hTA1 C5S; M = -5,66.8501 and 72.156 and 68.5661 and 75.0127 and 63.7584 and 82.7458
same,C5S - Normalized Luminescence Counts (N=2),hTA1 C5S; M = -5.522,58.0446 and 60.9798 and 52.4226 and 59.2704 and 49.2589 and 55.9562
same,ΔpEC50 values (each mutant value - WT average),hTA1 C13S; C13S,-0.156 and -0.1145
same,Emax values,"hTA1 C13S; C13S, Mean of fit per experiment",53.0882 and 64.9586
same,Span ± SEM (Emax normalized to β-PEA),"hTA1 C13S; C13S, n=2",59.02 ± 5.94
same,pEC50 ± SEM,"hTA1 C13S; C13S, n=2",5.99 ± 0.05
same,EC50,"hTA1 C13S; C13S, n=2, read-out: EC50",1010 nM
same,"pEC50 values, Mean","hTA1 C13S; hTA1 C13S, mean of 3 replicates, one line per independent experiment",5.973 and 6.015
same,C13S - Normalized Luminescence Counts (N=2),hTA1 C13S; M = -5,54.3554 and 36.9604 and 53.1374 and 65.6185 and 52.4268 and 54.7653
same,C13S - Normalized Luminescence Counts (N=2),hTA1 C13S; M = -5.522,42.3654 and 30.6418 and 38.8635 and 53.123 and 40.9666 and 58.8174
same,C13S - Normalized Luminescence Counts (N=2),hTA1 C13S; M = -6,26.7212 and 21.3162 and 26.3787 and 35.2187 and 26.4539 and 31.7735
same,C13S - Normalized Luminescence Counts (N=2),hTA1 C13S; M = -6.522,13.0564 and 10.1636 and 13.437 and 17.4036 and 12.4411 and 15.1722

# From PMC10762035, “Molecular basis of human trace amine-associated receptor 1 activation” (Nature Communications, 2024)
